We go through 29 molecules from ChEMBL document CHEMBL4842368, “Berotralstat (BCX7353): Structure-Guided Design of a Potent, Selective, and Oral Plasma Kallikrein Inhibitor to Prevent Attacks of Hereditary Angioedema (HAE)” (J Med Chem, 2021).

In data set [1] the target is T1, Plasma kallikrein (Homo sapiens, UniProt P03952). The data set can be described thus: Inhibition of endogenous human plasma kallikrein using Z-Phe-Arg-AMC.HCl as substrate measured after 5 mins by microplate reader analysis.
The target in data set [2] is T1, Plasma kallikrein. The experiment in a line: Inhibition of purified human plasma kallikrein using H-D-Pro-Phe-Arg-pNA.2HCl as substrate measured after 3 mins by microplate reader analysis.
A short description of data set [3]: Plasma concentration in rat at 5 mg/kg, po after 24 hrs. Format: ADME, organism-based.
A short description of data set [4]: Cmax in rat at 5 mg/kg, po. Further details: route oral, dose 5 mg/kg. As to conditions: in vivo. Format: ADME, organism-based.
The nature of data set [5]: AUC in rat at 5 mg/kg, po after 24 hrs. Format: ADME, organism-based. Further details: route oral, dose 5 mg/kg, time 24 hrs. As to conditions: in vivo.
Data set [6] can be described thus: Plasma concentration in rat at 5 mg/kg, po after 12 hrs. Format: ADME, organism-based.
Data set [7] can be described thus: AUC in rat at 5 mg/kg, po after 12 hrs. Format: ADME, organism-based. Particulars: in vivo. More on the design: route oral, time 12 hrs, dose 5 mg/kg.
Data set [8] in a line: Cmax in rat at 10 mg/kg, po. Format: ADME, organism-based. Further details: route oral, dose 10 mg/kg. As to conditions: in vivo.
Data set [9] can be described thus: Plasma concentration in rat at 10 mg/kg, po after 24 hrs. Format: ADME, organism-based.
Data set [10] in a line: AUC in rat at 10 mg/kg, po after 24 hrs. Format: ADME, organism-based. More on the design: route oral, time 24 hrs, dose 10 mg/kg. As to conditions: in vivo.
The species entered for data set [11] is Homo sapiens. The data set can be described thus: Selectivity index, ratio of IC50 for human Cls to IC50 for human plasma kallikrein.
For data set [12], the species on record is Homo sapiens. The data set can be described thus: Selectivity index, ratio of IC50 for human trypsin to IC50 for human plasma kallikrein.
The species entered for data set [13] is Homo sapiens. The data set can be described thus: Selectivity index, ratio of IC50 for human FX2a to IC50 for human plasma kallikrein.
The species entered for data set [14] is Homo sapiens. The experiment in a line: Selectivity index, ratio of IC50 for human tissue kallikrein to IC50 for human plasma kallikrein.
The species named for data set [15] is Homo sapiens. The data set can be described thus: Selectivity index, ratio of IC50 for human tPA to IC50 for human plasma kallikrein.
The species named for data set [16] is Homo sapiens. The experiment in a line: Selectivity index, ratio of IC50 for human plasmin to IC50 for human plasma kallikrein.
For data set [17], the species on record is Homo sapiens. The data set can be described thus: Selectivity index, ratio of IC50 for human thrombin to IC50 for human plasma kallikrein.
The species named for data set [18] is Homo sapiens. The data set can be described thus: Selectivity index, ratio of IC50 for human FXa to IC50 for human plasma kallikrein.
Data set [19] is filed under the species Homo sapiens. The data set can be described thus: Selectivity index, ratio of IC50 for human APC to IC50 for human plasma kallikrein.
For data set [20], the target named is T1, Plasma kallikrein. The experiment in a line: Inhibition of purified human plasma kallikrein using H-D-Pro-Phe-Arg-pNA.2HCl as substrate at 5 uM measured after 3 mins by microplate reader analysis relative to control.

T1 sequence (P03952 20-390 limits assumed): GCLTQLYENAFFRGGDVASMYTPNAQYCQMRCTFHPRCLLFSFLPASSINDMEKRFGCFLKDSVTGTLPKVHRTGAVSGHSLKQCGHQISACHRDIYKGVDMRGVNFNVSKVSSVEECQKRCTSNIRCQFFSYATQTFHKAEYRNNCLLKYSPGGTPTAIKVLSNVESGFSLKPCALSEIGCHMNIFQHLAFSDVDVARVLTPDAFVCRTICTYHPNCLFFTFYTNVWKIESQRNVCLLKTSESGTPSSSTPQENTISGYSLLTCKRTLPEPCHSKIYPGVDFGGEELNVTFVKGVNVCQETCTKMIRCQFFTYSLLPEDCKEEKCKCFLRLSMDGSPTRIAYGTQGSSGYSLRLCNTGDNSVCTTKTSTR
T1 sequence (P03952 391-638 limits assumed): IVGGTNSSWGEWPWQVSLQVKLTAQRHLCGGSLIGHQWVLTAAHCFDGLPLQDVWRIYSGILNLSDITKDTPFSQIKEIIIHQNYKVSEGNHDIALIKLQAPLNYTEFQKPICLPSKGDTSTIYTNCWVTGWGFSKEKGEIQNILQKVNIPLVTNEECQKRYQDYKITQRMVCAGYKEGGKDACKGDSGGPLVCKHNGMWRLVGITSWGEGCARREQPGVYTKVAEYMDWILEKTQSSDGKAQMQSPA

For the molecule `NCc1cccc(-n2nc(C(F)(F)F)cc2C(=O)Nc2cc(F)cc(C(OCC3CC3)c3ccccc3)c2)c1` (stereo not drawn), the IC50 at Plasma kallikrein [1] was over 1000 nM; at Plasma kallikrein [2], 0.1 µM.
On the same counts, the results for `N#Cc1ccc(C(NCC2CC2)c2ccc(F)c(NC(=O)c3cc(C(F)(F)F)nn3-c3cccc(CN)c3)c2)cc1` (stereo not drawn) are 19 nM and 0.0072 µM.
As to `NCc1cccc(-n2nc(C(F)(F)F)cc2C(=O)Nc2ccc(F)c(C(OCC3CC3)c3ccccc3)c2)c1` (stereo not drawn), the IC50 at Plasma kallikrein [1] is over 1000 nM; against Plasma kallikrein [2] it was 0.708 µM.
In the case of `NCc1cccc(-n2nc(C(F)(F)F)cc2C(=O)Nc2cc(C(NCC3CC3)c3ccccc3)ccc2F)c1` (stereo in doubt; 25), the concentration at 24 h in [3] is 29 ng/mL. In data set [4], the Cmax was 51 ng/mL. In addition, the AUC at 24 h in data set [5] was determined as 852 ng·h/mL. Besides, the concentration at 12 h in [6] is 31 ng/mL. Also, the AUC at 12 h in data set [7] worked out at 493 ng·h/mL.
On to `NCc1cccc(-n2nc(C(F)(F)F)cc2C(=O)Nc2cc(C(NCC3CC3)c3ccccn3)ccc2F)c1` (stereo not drawn), for which the concentration in data set [4] peaked (Cmax) at 45 ng/mL. Moreover, the values for the IC50 on Plasma kallikrein [1] and at Plasma kallikrein [2] were 26.7 nM and 0.0104 µM, respectively. For the same molecule, in data set [7], the AUC at 12 h came to 131 ng·h/mL.
In turn, `NCc1cccc(-n2cccn2)c1` had an IC50 at Plasma kallikrein [2] of 3400 µM.
In the case of `NCc1cccc(-n2nc(C(F)(F)F)cc2C(=O)Nc2cccc(C(OCC3CC3)c3ccccc3)c2)c1` (stereo not drawn), the IC50 stood at 300 nM at Plasma kallikrein [1] and 0.0376 µM against Plasma kallikrein [2].
The matching figures for `NCc1cccc(-n2nc(C(F)(F)F)cc2C(=O)Nc2cccc(C(OCC3CC3)c3ccccc3)c2F)c1` (stereo not drawn): over 1000 nM and 0.037 µM.
As for `NCc1cccc(-n2nc(C(F)(F)F)cc2C(=O)Nc2ccccc2F)c1`, inhibition at Plasma kallikrein [2] was half-maximal at 27.3 µM (IC50).
As to `NCc1cccc(-n2nc(C(F)(F)F)cc2C(=O)Nc2ccc(-c3ccccc3)cc2)c1`, half-maximal inhibition on Plasma kallikrein [2] (IC50) was put at 2.9 µM.
In data set [8], `NCc1cccc(-n2nc(C(F)(F)F)cc2C(=O)Nc2cc(C(NCC3CC3)c3ccccc3)ccc2F)c1` (single isomer, unassigned; (-)) showed a Cmax of 133 ng/mL. This molecule showed a concentration at 24 h in [9] of 30 ng/mL. This molecule returned an AUC at 24 h in data set [10] of 1490 ng·h/mL.
As to `N#Cc1cccc([C@@H](NCC2CC2)c2ccc(F)c(NC(=O)c3cc(C(F)(F)F)nn3-c3cccc(CN)c3)c2)c1` (stereo in doubt), the Ratio IC50 in the data set filed under Homo sapiens [11] is over 56800; in the data set filed under Homo sapiens [12], 12500; in the data set filed under Homo sapiens [13], over 56800; in the data set filed under Homo sapiens [14], over 34100; in the data set listed under Homo sapiens [15], over 56800; in the data set filed under Homo sapiens [16], 4510. Also, the Ratio IC50 is over 56800 in the data set listed under Homo sapiens [17], over 56800 in the data set filed under Homo sapiens [18] and over 34100 in the data set listed under Homo sapiens [19].
Molecule `NCc1cccc(-n2nc(C(F)(F)F)cc2C(=O)Nc2ccc(-c3ccc(S(N)(=O)=O)cc3)cc2F)c1` gave an IC50 at Plasma kallikrein [2] of 0.395 µM.
`NCc1cccc(-n2nc(C(F)(F)F)cc2C(=O)Nc2cc(C(NCC3CC3)c3ccncc3)ccc2F)c1` (stereo not drawn) displayed a Cmax in data set [4] of 22 ng/mL. Also, the IC50 worked out at 16.7 nM against Plasma kallikrein [1] and 0.0052 µM on Plasma kallikrein [2]. In addition, in data set [7], the AUC at 12 h was determined as 73 ng·h/mL.
As for `NCc1cccc(-n2nc(C(F)(F)F)cc2C(=O)Nc2ccc(N3CCCCC3)cc2F)c1`, at Plasma kallikrein [20], the inhibition is 7.5%.
`COC(c1ccccc1)c1ccc(F)c(NC(=O)c2cc(C(F)(F)F)nn2-c2cccc(CN)c2)c1` (stereo not drawn) gave an IC50 against Plasma kallikrein [2] of 0.231 µM.
As to `NCc1cccc(-n2nc(C(F)(F)F)cc2C(=O)Nc2cccc(C(O)c3ccccc3)c2F)c1` (stereo not drawn), the IC50 at Plasma kallikrein [2] was 0.149 µM. This IC50 lies about 1.6-fold lower than the previous one.
Molecule `NCc1cccc(-n2nc(C(F)(F)F)cc2C(=O)O)c1` came in with an IC50 at Plasma kallikrein [2] of 15.4 µM.
Same read-out and setting: to `NCc1cccc(-n2nc(C(F)(F)F)cc2C(=O)Nc2ccc(C3CC3)cc2F)c1` belongs 0.577 µM; to `NCc1cccc(-n2nc(C(F)(F)F)cc2C(=O)Nc2cc(C(O)c3ccccc3)ccc2F)c1` (stereo not drawn), 0.71 µM; to `NCc1cccc(-n2nc(C(F)(F)F)cc2C(=O)Nc2ccc(-c3ccc(C(N)=O)cc3)cc2F)c1`, 0.395 µM.
As to `CCOC(c1ccccc1)c1ccc(F)c(NC(=O)c2cc(C(F)(F)F)nn2-c2cccc(CN)c2)c1` (stereo not drawn), the IC50 on Plasma kallikrein [1] amounted to 1280 nM; on Plasma kallikrein [2], 0.134 µM.
In turn, `NCc1cccc(-n2ccc(C(F)(F)F)n2)c1` returned an IC50 at Plasma kallikrein [2] of 1000 µM.
As for `NCc1cccc(-n2nc(C(F)(F)F)cc2C(=O)Nc2cc(C(NCC3CC3)c3cccnc3)ccc2F)c1` (stereo not drawn), in data set [4], the Cmax is 58 ng/mL. The IC50 was found to be 10 nM on Plasma kallikrein [1] and 0.01 µM at Plasma kallikrein [2]. Further, the AUC at 12 h in [7] is 128 ng·h/mL.
On Plasma kallikrein [2], `NCc1cccc(-n2nc(C(F)(F)F)cc2C(=O)Nc2ccc(C(O)c3ccccc3)cc2F)c1` (stereo not drawn) had an IC50 of 1 µM.
`CS(=O)(=O)c1cccc(-c2ccc(NC(=O)c3cc(C(F)(F)F)nn3-c3cccc(CN)c3)c(F)c2)c1` registered an IC50 against Plasma kallikrein [2] of 1.23 µM.
At Plasma kallikrein [2], `NCc1cccc(-n2nc(C(F)(F)F)cc2C(=O)Nc2ccccc2)c1` came in with an IC50 of 22.6 µM.
The same measure, in the same setting: to `NCc1cccc(-n2nc(C(F)(F)F)cc2C(=O)Nc2ccc(-c3ccccc3)cc2F)c1` belongs 1.02 µM; to `NCc1cccc(-n2nc(C(F)(F)F)cc2C(=O)Nc2ccc(C(OCC3CC3)c3ccccc3)cc2F)c1` (stereo not drawn), 0.651 µM.
